Test: Saturated solubility in ethanol solvent (excess loaded, stirred 24 hours, 0.45-um filtrate measured with LCMS)
Assay type: physicochemical
Conditions: for saturated solubility used in calculation of the degree of supersaturation: 90% by mass of EtOH, 10° C.; for saturated dissolution concentration: 90% ethanol solvent at 10° C., according to FIG. 1
Protocol: The saturated solubility is herein measured according to the following method. That is, 100 ml of a solvent having a predetermined ethanol concentration (w/w) is placed in a container (having a volume of 100 ml or 200 ml, suitably 200 ml), the liquid temperature is set to 10° C. by a water bath in advance, and then the solvent is stirred at 200 rpm, and a target substance is loaded in an excessive amount (amount until suspension is made). After 24 hours, a filtrate is obtained by a 0.45-um membrane filter, and the amount of the target substance (RebA or RebD) included in the filtrate is measured with LCMS. LCMS here used is suitably LCMS 8050 manufactured by Shimadzu Corporation.
Specifically, 100 ml of a solvent having a predetermined ethanol concentration (w/w) was placed in a […] glass container (separable round-bottomed flask, Tokyo Rikakikai Co., Ltd.), set to a predetermined temperature by a water bath (PCC-7000, Tokyo Rikakikai Co., Ltd.) in advance, and then stirred (SPZ-100, Tokyo Rikakikai Co., Ltd.) at 200 rpm, and RebA (J-100, Morita Kagaku Kogyo Co., Ltd.) or RebD (Jining Renewal & Joint International, China) was loaded in an excessive amount (amount until suspension was achieved). After 24 hours, a filtrate was obtained by a 0.45-um membrane filter, the amount of RebA or RebD included in the filtrate was measured with LCMS (LCMS 8050 manufactured by Shimadzu Corporation), and the solubility curve was created. The results are illustrated in FIG. 1.

Row | Compound | saturated solubility used in calculation of the degree of supersaturation | saturated dissolution concentration
1 | C=C1C[C@@]23CC[C@H]4[C@@](C)(CCC[C@@]4(C)C(=O)O[C@@H]4O[C@H](CO)[C@@H](O)[C@H](O)[C@H]4O)[C@@H]2CC[C@]1(O[C@@H]1O[C@H](CO)[C@@H](O)[C@H](O[C@@H]2O[C@H](CO)[C@@H](O)[C@H](O)[C@H]2O)[C@H]1O[C@@H]1O[C@H](CO)[C@@H](O)[C@H](O)[C@H]1O)C3 [RebA, rebaudioside A] | 8270.5 ppm | 8,250 ppm
2 | C=C1C[C@@]23CC[C@H]4[C@@](C)(CCC[C@@]4(C)C(=O)O[C@@H]4O[C@H](CO)[C@@H](O)[C@H](O)[C@H]4O[C@@H]4O[C@H](CO)[C@@H](O)[C@H](O)[C@H]4O)[C@@H]2CC[C@]1(O[C@@H]1O[C@H](CO)[C@@H](O)[C@H](O[C@@H]2O[C@H](CO)[C@@H](O)[C@H](O)[C@H]2O)[C@H]1O[C@@H]1O[C@H](CO)[C@@H](O)[C@H](O)[C@H]1O)C3 [RebD, rebaudioside D] | 99.33 ppm | 99.3 ppm

From US20220363705A1, “METHOD FOR MANUFACTURING REVAUDIOSIDE-D-CONTAINING CRYSTALLIZED PRODUCT, AND REVAUDIOSIDE-D-CONTAINING CRYSTALLIZED PRODUCT” (SUNTORY HOLDINGS LIMITED, priority 2019, published 2022)
